Literature values, collected in patent US8461314B2, “Nucleic acid sequences for biosynthesis of non-MccJ25-related lariat peptides” (Rutgers, The State University of New Jersey, priority 2007, dated 2013).

Experiments:
[1] = tested on: RNA polymerase derivatives resistant to rifamycins
[2] = molecular target: Gram-negative bacterial RNA polymerase (Escherichia coli, UniProt P0A8T7+P0A8V2)
bacterial RNA polymerase = bacterial RNA polymerase (Escherichia coli, UniProt P0A8T7+P0A8V2)
[3] = tested thermal and chemical denaturants
[4] = molecular target: Gram-positive bacterial RNAP (Bacillus subtilis, UniProt P37870+P37871)
Gram-positive bacterial = conditions: Gram-positive bacteria
[5] = tested on: mesophilic endo- and exopeptidease
[6] = molecular target: Thermus-Deinoccoccus bacterial RNAP (Thermus thermophilus, UniProt Q8RQE8+Q8RQE9); conditions: including, for example
[7] = tested on: Thermococcus-Deinococcus bacterial growth; conditions: Thermococcus-Deinococcus bacteria

Substance	ability to inhibit RNA polymerase derivatives resistant to rifamycins [1]	cross-resistance with rifamycins [1]	inhibition of Gram-negative bacterial RNA polymerase [2]	inhibition of bacterial RNA polymerase (bacterial RNA polymerase)	antibacterial activity (Escherchia coli)	antibacterial activity (Salmonella sp.)	resistance to denaturation [3]	inhibition of Gram-positive bacterial RNAP [4]	inhibition of bacterial growth (Gram-positive bacterial)	resistance to proteolysis [5]	inhibition of Thermus-Deinoccoccus bacterial RNAP [6]	inhibition of bacterial growth [7]
Gly1-Gly2-Ala3-Gly4-His5-Pro6-Val7-Glu8-Tyr9-Phe10-Val11-Gly12-Ile13-Gly14-Thr15-Pro16-Ile17-Ser18-Phe19-Tyr20-Gly21 cyclic(8→1) peptide [MccJ25]	retains full ability to inhibit	no cross-resistance	inhibits	inhibits	exhibits antibacterial activity	exhibits antibacterial activity	complete resistance	does not inhibit	not inhibit	complete resistance	does not inhibit	not inhibit
propeptin			inhibit	inhibit				inhibit			inhibit	
